Data taken from patent US8680052B1, “Methods of treating, reducing the incidence of, and/or preventing ischemic events” (The Medicines Company, priority 2013, dated 2014).

System: patients with acute coronary syndromes undergoing PCI
Experiment: Example 2: bleeding (GUSTO, TIMI, ACUITY) and adverse events up to 48 hours
Type: in vivo, human
Description: Multiple definitions of bleeding were used for full disclosure of bleeding risks associated with cangrelor: […] N Engl J Med 329:673-82 (1993); mild, moderate, or severe/life-threatening based on transfusion use and presence/absence of hemodynamic compromise); […] Investigators reported adverse and serious adverse events according to International Conference on Harmonization guidance (International Conference on Harmonization (ICH) Guidance Documents. U.S. Food and Drug Administration Web site. (Accessed on Oct. 8, 2009, at the FDA website beginning with “www.” and ending with “fda.gov/RegulatoryInformation/Guidances/ucm122049.htm”)).

COC(=O)[C@H](c1ccccc1Cl)N1CCc2sccc2C1 [Clopidogrel, clopidogrel, reference compound] was tested, and the “ACUITY criteria Major bleeding” value (48-hour, safety population) was 126 (2.9) no. (%), the “ACUITY criteria Minor bleeding” value (48-hour, safety population) was 663 (15.2) no. (%) and the “Access site bleeding requiring radiologic or surgical intervention” value (48-hour, safety population) was 10 (0.2) no. (%). The Any blood transfusion (48-hour, safety population) was 42 (1.0) no. (%), the Any platelet transfusion (48-hour, safety population) was 5 (0.1) no. (%) and the “Drop in hemoglobin and/or hematocrit” value (48-hour, safety population) was 63 (1.4) no. (%). For the same molecule, the Ecchymosis (48-hour, safety population) was 234 (5.4) no. (%), the Epistaxis (48-hour, safety population) was 22 (0.5) no. (%) and the “GUSTO criteria Mild bleeding” value (48-hour, safety population) was 739 (16.9) no. (%). For the same molecule, the “GUSTO criteria Moderate bleeding” value (48-hour, safety population) was 34 (0.8) no. (%), the “GUSTO criteria Severe/life-threatening bleeding” value (48-hour, safety population) was 11 (0.3) no. (%) and the “Hematoma <5 cm at puncture site” value (48-hour, safety population) was 222 (5.1) no. (%). For the same molecule, the “Hematoma ≧5 cm at puncture site” value (48-hour, safety population) was 76 (1.7) no. (%), the Hemodynamic compromise (48-hour, safety population) was 11 (0.3) no. (%) and the Intracranial hemorrhage (48-hour, safety population) was 0 (0.0) no. (%). The Intraocular (48-hour, safety population) was 0 (0.0) no. (%), the “Oozing at puncture site” value (48-hour, safety population) was 319 (7.3) no. (%) and the Reoperation for bleeding (48-hour, safety population) was 1 (0.0) no. (%). The Retroperitoneal (48-hour, safety population) was 10 (0.2) no. (%), the “TIMI criteria Major bleeding” value (48-hour, safety population) was 14 (0.3) no. (%) and the “TIMI criteria Minor bleeding” value (48-hour, safety population) was 26 (0.6) no. (%). The Thrombocytopenia (48-hour, safety population) was 7 (0.2) no. (%), the Dyspnea (human, in vivo, 48 h) was 0.4% and the Serious adverse events (human, in vivo, 48 h) was 2.7%. The “discontinuation of study drug due to an adverse event” value (human, in vivo, 48 h) was 0.5% and the Reported adverse events (safety population) was 25.7%.
